Reference: patent publication US5298494A, “Monosaccharides having anti-proliferation and anti-inflammatory activity, compositions and uses thereof” (Greenwich Pharmaceuticals Incorporated, priority 1993, dated 1994)
Like-named read-outs stand apart in the source and are kept apart here.

Assays:
[1] = system: T lymphocytes (normal mouse spleen cells) stimulated with ConA; experiment: Mouse Spleen Cell ConA Blastogenesis Assay; type: cell-based, mouse (C57Bl/6); settings: for inhibition at 1 µg/mL / inhibition at 2.5 µg/mL / inhibition at 10 µg/mL / inhibition at 25 µg/mL / inhibition at 100 µg/mL / inhibition at 300 µg/mL / inhibition at 750 µg/mL: Mus musculus, T-lymphocyte, read-out: % change from control, ConA blastogenic response; for inhibition at 2.5 µg/mL: compound 2.5 ug/ml; for strong antiproliferative effect on ConA blastogenic response: concentration not given
[2] = system: Interleukin 1 (IL-1) production by peritoneal macrophages; experiment: IL-1 Assay: production of interleukin-1 by peritoneal macrophages (thymocyte bioassay); type: cell-based, mouse (C57B1/6); parameters: inhibition: dose or concentration left out as unconfirmed; settings: for inhibition at 0.001 µg/mL / inhibition at 0.01 µg/mL / inhibition at 0.1 µg/mL / inhibition at 2.5 µg/mL / inhibition at 10 µg/mL / inhibition at 25 µg/mL / inhibition at 100 µg/mL / inhibition: Mus musculus, Peritoneal macrophage, read-out: % effect on IL-1 production (thymidine uptake by thymocytes)
Excerpt: Interleukin 1 (IL-1) is a potent immunomodulatory cytokine that has a broad range of pro-inflammatory activities. IL-1 is known to be produced by activated accessory cells such as macrophages. Accessory cell production of IL-1 results in the activation and proliferation of T and B lymphocytes. Therefore, by inhibiting macrophage activation and production of IL-1, the activation and proliferation of the cellular effectors of inflammation can be modulated. Compounds of the invention were screened for inhibitory activity in a classical IL-1 assay. Six to 8 week old male C57B1/6 mice were purchased from Harlan Sprague Dawley. Peritoneal macrophages were elicited by the administration to mice of a single intraperitoneal injection of 0.2 ml of complete Freund's adjuvant. After 48 hours, elicited macrophages were removed from the mice by lavage with the use of Hank's balanced salt solution. […] To the macrophage cultures were added various doses of the compounds of the invention and 10 ug/ml of the macrophage activator lipopolysaccharide (to stimulate IL-1 production). Control cultures consisted of macrophages, lipopolysaccharide and culture medium containing various doses of DMSO only. […] The amount of IL-1 produced in the individual wells was determined in a bioassay for IL-1. This involved the removal of thymuses from mice less than 8 weeks of age. Thymocytes were isolated by passing each thymus through a stainless steel mesh screen. […] After 18 hours cells were harvested and radioactive incorporation (as a measure of cell proliferation) was quantitated in a liquid scintillation counter. The students t test was used to determine the significance of the difference between experimental and control values.

[3] = ConA 1 ug/ml, compound 10 ug/ml
[4] = ConA 1 ug/ml, compound 25 ug/ml
[5] = ConA 1 ug/ml, compound 100 ug/ml
[6] = ConA 4 ug/ml, compound 10 ug/ml
[7] = ConA 4 ug/ml, compound 25 ug/ml
[8] = ConA 4 ug/ml, compound 100 ug/ml
[9] = ConA 1 ug/ml, compound 300 ug/ml
[10] = ConA 1 ug/ml, compound 750 ug/ml
[11] = ConA 4 ug/ml, compound 300 ug/ml
[12] = ConA 4 ug/ml, compound 750 ug/ml

CC1(C)OC2OC(C(O)COCCCc3ccccc3)C(O)C2O1 [IIIe, 1,2-O-Isopropylidene-6-O-3'-(phenylpropyl)-α-D-glucofuranose]
inhibition at 1 µg/mL ([1]; ConA 1 ug/ml, compound 1 ug/ml): 78%
inhibition at 2.5 µg/mL ([1]; ConA 1 ug/ml): 94%
inhibition at 10 µg/mL [1, 3]: 98%
inhibition at 25 µg/mL [1, 4]: 99%
inhibition at 100 µg/mL [1, 5]: 99%
inhibition at 1 µg/mL ([1]; ConA 4 ug/ml, compound 1 ug/ml): 76%
inhibition at 2.5 µg/mL ([1]; ConA 4 ug/ml): 91%
inhibition at 10 µg/mL [1, 6]: 97%
inhibition at 25 µg/mL [1, 7]: 99%
inhibition at 100 µg/mL [1, 8]: 100%
strong antiproliferative effect on ConA blastogenic response [1]: greater than -50 % of control
^3 H-Thymidine uptake by thymocytes ([2]; 0.001 ug/ml): 7,276 ± 399 cpm
^3 H-Thymidine uptake by thymocytes ([2]; 0.01 ug/ml): 8,908 ± 773 cpm
^3 H-Thymidine uptake by thymocytes ([2]; 0.1 ug/ml): 8,049 ± 282 cpm
^3 H-Thymidine uptake by thymocytes ([2]; 1 ug/ml): 4,279 ± 691 cpm
^3 H-Thymidine uptake by thymocytes ([2]; 2.5 ug/ml): 3,676 ± 506 cpm
^3 H-Thymidine uptake by thymocytes ([2]; 10 ug/ml): 2,586 ± 553 cpm
^3 H-Thymidine uptake by thymocytes ([2]; 25 ug/ml): 1,840 ± 301 cpm
^3 H-Thymidine uptake by thymocytes ([2]; 100 ug/ml): 1,129 ± 299 cpm
inhibition at 0.001 µg/mL ([2]; 0.001 ug/ml): -11%
inhibition at 0.01 µg/mL ([2]; 0.01 ug/ml): -8%
inhibition at 0.1 µg/mL ([2]; 0.1 ug/ml): -4%
inhibition at 2.5 µg/mL ([2]; 2.5 ug/ml): 56%
inhibition at 10 µg/mL ([2]; 10 ug/ml): 66%
inhibition at 25 µg/mL ([2]; 25 ug/ml): 76%
inhibition at 100 µg/mL ([2]; 100 ug/ml): 83%
inhibition [2]: -45%

CN1CCCC1CCNC[C@H]1OC(C)(C)O[C@@H]2[C@H]3OC(C)(C)O[C@H]3O[C@@H]21 (some centres unmarked) [IIIi]
inhibition at 1 µg/mL ([1]; ConA 1 ug/ml, compound 1 ug/ml): -25%
inhibition at 2.5 µg/mL ([1]; ConA 1 ug/ml): -16%
inhibition at 10 µg/mL [1, 3]: -10%
inhibition at 25 µg/mL [1, 4]: 23%
inhibition at 100 µg/mL [1, 5]: 91%
inhibition at 1 µg/mL ([1]; ConA 4 ug/ml, compound 1 ug/ml): 9%
inhibition at 2.5 µg/mL ([1]; ConA 4 ug/ml): 14%
inhibition at 10 µg/mL [1, 6]: 9%
inhibition at 25 µg/mL [1, 7]: 50%
inhibition at 100 µg/mL [1, 8]: 95%
strong antiproliferative effect on ConA blastogenic response [1]: greater than -50 % of control
^3 H-Thymidine uptake by thymocytes ([2]; 0.001 ug/ml): 11,367 ± 906 cpm
^3 H-Thymidine uptake by thymocytes ([2]; 0.01 ug/ml): 9,902 ± 888 cpm
^3 H-Thymidine uptake by thymocytes ([2]; 0.1 ug/ml): 10,740 ± 724 cpm
^3 H-Thymidine uptake by thymocytes ([2]; 1 ug/ml): 9,561 ± 113 cpm
^3 H-Thymidine uptake by thymocytes ([2]; 2.5 ug/ml): 5,382 ± 45 cpm
^3 H-Thymidine uptake by thymocytes ([2]; 10 ug/ml): 5,169 ± 870 cpm
^3 H-Thymidine uptake by thymocytes ([2]; 25 ug/ml): 5,052 ± 140 cpm
^3 H-Thymidine uptake by thymocytes ([2]; 100 ug/ml): 2,328 ± 278 cpm
inhibition at 0.001 µg/mL ([2]; 0.001 ug/ml): -39%
inhibition at 0.01 µg/mL ([2]; 0.01 ug/ml): -20%
inhibition at 0.1 µg/mL ([2]; 0.1 ug/ml): -39%
inhibition at 2.5 µg/mL ([2]; 2.5 ug/ml): 35%
inhibition at 10 µg/mL ([2]; 10 ug/ml): 33%
inhibition at 25 µg/mL ([2]; 25 ug/ml): 34%
inhibition at 100 µg/mL ([2]; 100 ug/ml): 65%
inhibition [2]: -22%

CCCCCCCOCCCO[C@@H]1[C@H]2OC(C)(C)O[C@H]2O[C@@H]1[C@H](O)CO [IIg]
Blastogenic response of normal spleen cells to Con-A ([1]; ConA 1 ug/ml, compound 1 ug/ml): 91,958 ± 15,723 cpm
Blastogenic response of normal spleen cells to Con-A [1, 3]: 100,734 ± 25,985 cpm
Blastogenic response of normal spleen cells to Con-A [1, 4]: 108,874 ± 15,534 cpm
% change from control, ConA blastogenic response [1, 5]: -67%
Blastogenic response of normal spleen cells to Con-A [1, 5]: 23,806 ± 1,727 cpm
% change from control, ConA blastogenic response [1, 9]: -84%
Blastogenic response of normal spleen cells to Con-A [1, 9]: 11,212 ± 15,288 cpm
% change from control, ConA blastogenic response [1, 10]: -82%
Blastogenic response of normal spleen cells to Con-A [1, 10]: 12,807 ± 9,049 cpm
Blastogenic response of normal spleen cells to Con-A ([1]; ConA 4 ug/ml, compound 1 ug/ml): 174,764 × 10^3 cpm
Blastogenic response of normal spleen cells to Con-A [1, 6]: 168,131 ± 14,911 cpm
Blastogenic response of normal spleen cells to Con-A [1, 7]: 216,784 ± 27,862 cpm
Blastogenic response of normal spleen cells to Con-A [1, 8]: 31,073 ± 10,784 cpm
% change from control, ConA blastogenic response [1, 11]: -91%
Blastogenic response of normal spleen cells to Con-A [1, 11]: 8,268 ± 322 × 10^3 cpm
% change from control, ConA blastogenic response [1, 12]: -79%
Blastogenic response of normal spleen cells to Con-A [1, 12]: 20,265 ± 12,455 cpm
inhibition at 1 µg/mL ([1]; ConA 1 ug/ml, compound 1 ug/ml): -27%
inhibition at 10 µg/mL [1, 3]: -39%
inhibition at 25 µg/mL [1, 4]: -51%
inhibition at 100 µg/mL [1, 5]: 67%
inhibition at 300 µg/mL [1, 9]: 84%
inhibition at 750 µg/mL [1, 10]: 82%
inhibition at 1 µg/mL ([1]; ConA 4 ug/ml, compound 1 ug/ml): -80%
inhibition at 10 µg/mL [1, 6]: -73%
inhibition at 25 µg/mL [1, 7]: -123%
inhibition at 300 µg/mL [1, 11]: 91%
inhibition at 750 µg/mL [1, 12]: 79%
^3 H-Thymidine uptake by thymocytes ([2]; 0.001 ug/ml): 8,823 ± 771 cpm
^3 H-Thymidine uptake by thymocytes ([2]; 0.01 ug/ml): 7,873 ± 379 cpm
^3 H-Thymidine uptake by thymocytes ([2]; 0.1 ug/ml): 8,790 ± 533 cpm
^3 H-Thymidine uptake by thymocytes ([2]; 1 ug/ml): 7,307 ± 680 cpm
^3 H-Thymidine uptake by thymocytes ([2]; 2.5 ug/ml): 7,229 ± 471 cpm
^3 H-Thymidine uptake by thymocytes ([2]; 10 ug/ml): 4,854 ± 471 cpm
^3 H-Thymidine uptake by thymocytes ([2]; 25 ug/ml): 3,265 ± 141 cpm
^3 H-Thymidine uptake by thymocytes ([2]; 100 ug/ml): 934 ± 43 cpm
inhibition at 0.001 µg/mL ([2]; 0.001 ug/ml): -8%
inhibition at 0.01 µg/mL ([2]; 0.01 ug/ml): 4%
inhibition at 0.1 µg/mL ([2]; 0.1 ug/ml): -14%
inhibition at 2.5 µg/mL ([2]; 2.5 ug/ml): 13%
inhibition at 10 µg/mL ([2]; 10 ug/ml): 37%
inhibition at 25 µg/mL ([2]; 25 ug/ml): 57%
inhibition at 100 µg/mL ([2]; 100 ug/ml): 80%
inhibition [2]: 6%
